Where a name gives a salt, the structure may show the parent alone. Read-outs that look alike come from different tables or passages of the source.
Tests used:
Experiment in all cases: In vitro combination study with Compound 1, Cell Titer-Glo (ATP) cell viability, 72 h;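 for Call, anti-proliferative effect of combination with Compound 1, A549: Ten-by-ten dose matrices of the two agents in duplicate, compounds added 16 h post-plating, activity relative to DMSO vehicle wells, call reflects synergy evaluation from luminescence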;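 for Call, anti-proliferative effect of combination with Compound 1, COLO205: Ten-by-ten dose matrices of both agents in duplicate plus single-agent dilutions, luminescent ATP read-out, percent activity per well relative to DMSO vehicle wells, synergy call from these matrices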;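 for Call, anti-proliferative effect of combination with Compound 1, H460: Ten-by-ten dose matrices of both drugs alongside single-agent dilutions, luminescence read 72 hours after compound addition, percent activity per well versus vehicle (DMSO) plate controls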;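 for Call, anti-proliferative effect of combination with Compound 1, HCT116: combination call from 10×10 dose matrices in duplicate, graded by synergy, with percent activity per well relative to DMSO vehicle controls on the same plate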;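 for Call, anti-proliferative effect of combination with Compound 1, SW620: Ten-by-ten dose matrices of both drugs in 384-well plates, luminescent ATP read-out, synergy evaluated against single-agent and DMSO vehicle controls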
A549 cancer cells = format: cell-based
Experimental: (§1) Each combination pair was evaluated in an individual 384-well plate which contained variable doses of both compounds as single agents, as well as two, ten-by-ten matrices (in duplicate) that contained mixtures of the two test compounds. In brief, compounds were added to the cell test plates 16 hours after cell plating and then assessed for viability 72 hours later. Continuous cultures of tumor cells were maintained under standard cell culturing conditions (i.e. in a humidified chamber set at 37° C., containing atmosphere 5% carbon dioxide). […] Seventy-two hours after compound addition, ATP levels were measured to assess cell viability. Plating densities were chosen to ensure optimal linear growth over the 72 hour period.
Compound dilution and compound delivery to the assay plates were done on HighRes Robotic System (HighRes Biosolutions, Woburn, Mass., USA) with Echo™ Liquid Handler (Labcyte, Sunnyvale, Calif., USA). […] Next, these were used for compound transfer into cell assay plates. All wells were back-filled to give a constant percentage of DMSO.
(§2) The final DMSO concentration was held constant in all wells across the plate and was maintained at less than 0.5%. […] Cells treated with vehicle (DMSO) in two rows, or single compound serial dilutions in one plate columns/row served as the untreated control and single compound controls, respectively.
(§3) Compound activity in A549, COLO205, H460, HCT116, SW48, SW620 cancer cell lines was assessed using Cell Titer-Glo® (Promega [Madison, Wis., USA]). After 72 hours incubation, the plates were treated as per package insert protocol for the Promega Luminescence ATP Detection Systems. Briefly, 25 μL of cell lysis/substrate solution (provided in kit form) was added to each well and the plate was incubated at room temperature for 10 minutes. Luminescence was measured using a PHERAstar multi-label counter (BMG Labtech [Ortenberg, Germany]) or LEADseeker (GE Healthcare Life Sciences [Piscataway, N.J., USA]).
(§4) Numerical luminescence values were analyzed to generate EC50 curves and evaluate synergy. Raw Data reader files were uploaded along with automation workfiles that defined the plate and well contents. Percent activities were calculated for each well versus plate controls.
(§5) Each plate representing a single drug combination was analyzed separately. First, the viability measurements were normalized by scaling the data so that the median of the negative controls was 0 and the median of the positive controls was 100.
(§6) For the combination analysis, a response surface model was used to describe the relationship between the normalized viability and the drug concentrations. The data were fit to the model by minimizing the residual sum of squares. Based on the fitted response surface, plots of constant viability, called isobolograms, were produced.
(§7) The Combination Index and Nonlinear Blending were used as measures of drug synergy. To calculate Combination Index the 50% isobologram (which is the dose contour that has 50% viability) was used. […] A standard procedure was created to produce a call in order to characterize the viability effects for each combination (synergy, additivity, subadditivity, or antagonism). If the Combination Index existed then these measures were used to make the call.

COLO205 cancer cells = format: cell-based, human
H460 cancer cells = format: cell-based
HCT116 cancer cells = format: cell-based
SW48 cancer cells = format: cell-based
Experimental: as §1
Compound dilution and compound delivery to the assay plates were done on HighRes Robotic System (HighRes Biosolutions, Woburn, Mass., USA) with Echo™ Liquid Handler (Labcyte, Sunnyvale, Calif., USA). First, 384-well low dead volume (LDV) plates containing DMSO (Appendix B) and 10 mM compound stock solutions were used to create the required intermediate compound dilution plates. Next, these were used for compound transfer into cell assay plates. All wells were back-filled to give a constant percentage of DMSO.
as §2, §3, §4, §5, §6, §7

SW620 cancer cells = format: cell-based
[1] = Table 5 drug combined with Compound 1, 72 h
[2] = DNA damaging agent combined with Compound 1, 72 h

Compound | Call, anti-proliferative effect of combination with Compound 1, A549 (A549 cancer cells; [1]) | Call, anti-proliferative effect of combination with Compound 1, COLO205 (COLO205 cancer cells; [1]) | Call, anti-proliferative effect of combination with Compound 1, H460 (H460 cancer cells; [1]) | Call, anti-proliferative effect of combination with Compound 1, HCT116 (HCT116 cancer cells; [1]) | Call, anti-proliferative effect of combination with Compound 1, SW48 (SW48 cancer cells; [1]) | Call, anti-proliferative effect of combination with Compound 1, SW620 (SW620 cancer cells; [1]) | Call, anti-proliferative effect of combination with Compound 1, H460 (H460 cancer cells; [2]) | Call, anti-proliferative effect of combination with Compound 1, HCT116 (HCT116 cancer cells; [2]) | Call, anti-proliferative effect of combination with Compound 1, SW48 (SW48 cancer cells; [2]) | Call, anti-proliferative effect of combination with Compound 1, SW620 (SW620 cancer cells; [2]) | also measured
Nc1ncn([C@@H]2O[C@H](CO)[C@@H](O)[C@H]2O)c(=O)n1 [Azacitidine] | Additivity (0.7 to 1.3) | Additivity (0.7 to 1.3) | Additivity (0.7 to 1.3) | Additivity (0.7 to 1.3) | Additivity (0.7 to 1.3) | Additivity (0.7 to 1.3) |  |  |  |  | 
Cn1c(=O)n(-c2ccc(C(C)(C)C#N)cc2)c2c3cc(-c4cnc5ccccc5c4)ccc3ncc21 [BEZ-235] | Additivity (0.7 to 1.3) | Additivity (0.7 to 1.3) | Additivity (0.7 to 1.3) | Additivity (0.7 to 1.3) | Antagonism (>2) | Subadditivity (1.3 to 2) |  |  |  |  | 
O=C(O)CCCc1ccc(N(CCCl)CCCl)cc1 [Chlorambucil] |  |  |  |  |  |  | Additivity (0.7 to 1.3) | Additivity (0.7 to 1.3) | Additivity (0.7 to 1.3) |  | Call, anti-proliferative effect of combination with Compound 1, A549 (A549 cancer cells): Additivity (key: Inconclusive: Any; Additivity: 0.7 to 1.3; Synergy: 0 to 0.7; Subadditivity: 1.3 to 2; Antagonism: >2)
COc1cccc2c1C(=O)c1c(O)c3c(c(O)c1C2=O)C[C@@](O)(C(C)=O)C[C@@H]3O[C@H]1C[C@H](N)[C@H](O)[C@H](C)O1 [Daunorubicin] |  |  |  |  |  |  |  |  |  |  | Call, anti-proliferative effect of combination with Compound 1, A549 (A549 cancer cells): Additivity (key: Inconclusive: Any; Additivity: 0.7 to 1.3; Synergy: 0 to 0.7; Subadditivity: 1.3 to 2; Antagonism: >2); Call, anti-proliferative effect of combination with Compound 1, COLO205 (COLO205 cancer cells): Additivity (key: Inconclusive: Any; Additivity: 0.7 to 1.3; Synergy: 0 to 0.7; Subadditivity: 1.3 to 2; Antagonism: >2); Call, anti-proliferative effect of combination with Compound 1, H460 (H460 cancer cells): Additivity (key: Inconclusive: Any; Additivity: 0.7 to 1.3; Synergy: 0 to 0.7; Subadditivity: 1.3 to 2; Antagonism: >2); Call, anti-proliferative effect of combination with Compound 1, HCT116 (HCT116 cancer cells): Synergy (key: Inconclusive: Any; Additivity: 0.7 to 1.3; Synergy: 0 to 0.7; Subadditivity: 1.3 to 2; Antagonism: >2); Call, anti-proliferative effect of combination with Compound 1, SW48 (SW48 cancer cells): Additivity (key: Inconclusive: Any; Additivity: 0.7 to 1.3; Synergy: 0 to 0.7; Subadditivity: 1.3 to 2; Antagonism: >2); Call, anti-proliferative effect of combination with Compound 1, SW620 (SW620 cancer cells): Synergy (key: Inconclusive: Any; Additivity: 0.7 to 1.3; Synergy: 0 to 0.7; Subadditivity: 1.3 to 2; Antagonism: >2)
Nc1ncn([C@H]2C[C@H](O)[C@@H](CO)O2)c(=O)n1 [Decitabine] |  |  |  |  |  |  | Synergy (0 to 0.7) | Synergy (0 to 0.7) | Additivity (0.7 to 1.3) | Additivity (0.7 to 1.3) | 
Nc1ccccc1NC(=O)c1ccc(CNC(=O)OCc2cccnc2)cc1 [Entinostat] | Synergy (0 to 0.7) | Subadditivity (1.3 to 2) | Synergy (0 to 0.7) | Additivity (0.7 to 1.3) | Subadditivity (1.3 to 2) | Synergy (0 to 0.7) |  |  |  |  | 
COc1cc([C@@H]2c3cc4c(cc3[C@@H](O[C@@H]3O[C@@H]5CO[C@@H](C)O[C@H]5[C@H](O)[C@H]3O)[C@H]3COC(=O)[C@H]23)OCO4)cc(OC)c1O [Etoposide] | Synergy (0 to 0.7) | Synergy (0 to 0.7) | Synergy (0 to 0.7) | Synergy (0 to 0.7) | Synergy (0 to 0.7) | Synergy (0 to 0.7) |  |  |  |  | 
CS(=O)(=O)N1CCN(Cc2cc3nc(-c4cccc5[nH]ncc45)nc(N4CCOCC4)c3s2)CC1 [GDC-0941] | Additivity (0.7 to 1.3) | Additivity (0.7 to 1.3) | Synergy (0 to 0.7) | Synergy (0 to 0.7) |  | Additivity (0.7 to 1.3) |  |  |  |  | 
N[C@@H](Cc1ccc(N(CCCl)CCCl)cc1)C(=O)O [Melphalan] |  |  |  |  |  |  |  | Synergy (0 to 0.7) | Additivity (0.7 to 1.3) | Synergy (0 to 0.7) | Call, anti-proliferative effect of combination with Compound 1, A549 (A549 cancer cells): Synergy (key: Inconclusive: Any; Additivity: 0.7 to 1.3; Synergy: 0 to 0.7; Subadditivity: 1.3 to 2; Antagonism: >2)
CO[C@@]12[C@H](COC(N)=O)C3=C(C(=O)C(C)=C(N)C3=O)N1C[C@@H]1N[C@@H]12 [Mitomycin C] |  |  |  |  |  |  | Synergy (0 to 0.7) | Synergy (0 to 0.7) | Synergy (0 to 0.7) | Synergy (0 to 0.7) | Call, anti-proliferative effect of combination with Compound 1, A549 (A549 cancer cells; [2]): Synergy (0 to 0.7); Call, anti-proliferative effect of combination with Compound 1, COLO205 (COLO205 cancer cells; [2]): Subadditivity (1.3 to 2)
O=C1c2c(O)ccc(O)c2C(=O)c2c(NCCNCCO)ccc(NCCNCCO)c21 [Mitoxantrone hydrochloride] |  |  |  |  |  |  | Synergy (0 to 0.7) | Synergy (0 to 0.7) | Additivity (0.7 to 1.3) | Synergy (0 to 0.7) | Call, anti-proliferative effect of combination with Compound 1, A549 (A549 cancer cells; [2]): Synergy (0 to 0.7); Call, anti-proliferative effect of combination with Compound 1, COLO205 (COLO205 cancer cells; [2]): Synergy (0 to 0.7)
COC1=CC(c2cc3ccccc3[nH]2)=N/C1=C\c1[nH]c(C)cc1C [Obatoclax] | Additivity (0.7 to 1.3) | Additivity (0.7 to 1.3) | Synergy (0 to 0.7) | Additivity (0.7 to 1.3) | Additivity (0.7 to 1.3) | Synergy (0 to 0.7) |  |  |  |  | 
Cc1[nH]c2ccccc2c1CCNCc1ccc(/C=C/C(=O)NO)cc1 [Panobinostat] | Additivity (0.7 to 1.3) | Subadditivity (1.3 to 2) | Additivity (0.7 to 1.3) | Additivity (0.7 to 1.3) |  | Additivity (0.7 to 1.3) |  |  |  |  | 
C/C=C(/C)C(=O)O[C@H]1C(C)=C2[C@H]([C@@H]1OC(=O)CCCCCCC)[C@@](C)(OC(C)=O)C[C@H](OC(=O)CCC)[C@@]1(O)[C@H]2OC(=O)[C@@]1(C)O [Thapsigargin] | Additivity (0.7 to 1.3) | Additivity (0.7 to 1.3) | Additivity (0.7 to 1.3) | Additivity (0.7 to 1.3) |  | Additivity (0.7 to 1.3) |  |  |  |  | 
S=P(N1CC1)(N1CC1)N1CC1 [Thio-tepa] |  |  |  |  |  |  | Additivity (0.7 to 1.3) | Synergy (0 to 0.7) | Additivity (0.7 to 1.3) | Synergy (0 to 0.7) | Call, anti-proliferative effect of combination with Compound 1, A549 (A549 cancer cells): Additivity (key: Inconclusive: Any; Additivity: 0.7 to 1.3; Synergy: 0 to 0.7; Subadditivity: 1.3 to 2; Antagonism: >2)
CC[C@]1(O)C[C@H]2CN(CCc3c([nH]c4ccccc34)[C@@](C(=O)OC)(c3cc4c(cc3OC)N(C=O)[C@H]3[C@@](O)(C(=O)OC)[C@H](OC(C)=O)[C@]5(CC)C=CCN6CC[C@]43[C@@H]65)C2)C1 [Vincristine sulfate] | Subadditivity (1.3 to 2) | Additivity (0.7 to 1.3) | Additivity (0.7 to 1.3) | Additivity (0.7 to 1.3) |  | Subadditivity (1.3 to 2) |  |  |  |  | 

From patent publication US20220323443A1, “COMBINATION THERAPY FOR CANCER TREATMENT” (TAKEDA PHARMACEUTICAL COMPANY LIMITED, priority 2019, published 2022)
